Assay results taken from patent publication US20100184802A1, “Bicycloheteroaryl Compounds as P2X7 Modulators and Uses Thereof” (priority 2006, published 2010).

Biological target: T1, P2X7 receptor (IL-1β release from THP-1 cells) (Homo sapiens, UniProt Q99572)
T1 construct: host or cells: THP-1 cells differentiated with LPS and IFN-γ
T1 sequence (Q99572 1-595): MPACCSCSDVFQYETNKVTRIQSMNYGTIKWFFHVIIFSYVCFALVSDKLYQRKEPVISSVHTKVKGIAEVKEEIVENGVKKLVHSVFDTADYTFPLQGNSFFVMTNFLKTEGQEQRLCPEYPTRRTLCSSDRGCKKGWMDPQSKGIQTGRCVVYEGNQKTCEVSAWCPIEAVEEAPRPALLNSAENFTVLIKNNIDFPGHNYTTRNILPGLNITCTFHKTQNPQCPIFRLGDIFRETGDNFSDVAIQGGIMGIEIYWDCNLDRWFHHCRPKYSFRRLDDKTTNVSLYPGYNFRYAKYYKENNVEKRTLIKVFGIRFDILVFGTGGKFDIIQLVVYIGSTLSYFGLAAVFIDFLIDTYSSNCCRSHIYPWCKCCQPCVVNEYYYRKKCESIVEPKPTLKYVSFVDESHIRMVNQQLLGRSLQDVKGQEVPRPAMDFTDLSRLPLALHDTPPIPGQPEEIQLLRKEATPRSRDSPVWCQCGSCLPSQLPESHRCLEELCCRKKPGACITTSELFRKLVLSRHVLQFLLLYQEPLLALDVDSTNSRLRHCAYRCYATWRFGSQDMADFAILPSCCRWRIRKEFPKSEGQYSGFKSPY
Assay: IL-1β release assay in differentiated THP-1 cells stimulated with BzATP (Example 9)
Format: cell-based
Details: for IC50: released IL-1β as in Example 9, four parameter logistic fit
Procedure: The cells are then pretreated for 30 minutes with the compound of interest at the appropriate concentration in RPMI media containing 100 IU/mL penicillin, 100 ug/mL streptomycin. […] 30 uL of cell supernatant is then collected and IL-1β levels determined via ELISA (R&D systems Cat. #HSLB50) according to manufacturer's recommendations using the Tecan Safire plate reader. Background adjusted IL-1β levels of drug treated and non-treated cells are used to calculate the percent inhibition.
The compounds set forth in Table 1 were tested for activity in a cellular model as described herein. […] Measurements were made and IC50 values, presented in Table 2, below, were determined by fitting the data to a four parameter logistic equation using GraphPad Prism software (GraphPad Software, Inc). The equation may be expressed by the following formula:
Y=Bottom+(Top−Bottom)/(1+10̂((Log EC50−X)*HillSlope))
Where X is the logarithm of concentration, Y is the response and Y starts at Bottom and goes to Top with a sigmoid shape.

[1] = 0.3 μM concentration, BzATP 250 uM, read-out: IL-1β % Inhib. @ 0.3 or 0.1 μM

## CC(C)[C@H](CO)n1ccc2c(NC(=O)CC3CCCCCC3)cccc2c1=O [Compound 591, 2-Cycloheptyl-N-[2-((R)-1-hydroxymethyl-2-methyl-propyl)-1-oxo-1,2-dihydro-isoquinolin-5-yl]-acetamide]
[1]
  inhibition at 0.3 µM: > 76%
  IC50: 3.42 nM

## C[C@@H](CO)n1ccc2c(NC(=O)CC3CCCCCC3)cccc2c1=O [Compound 605, 2-Cycloheptyl-N-[2-((S)-2-hydroxy-1-methyl-ethyl)-1-oxo-1,2-dihydro-isoquinolin-5-yl]-acetamide]
[1]
  inhibition at 0.3 µM: > 76%
  IC50: 66.5 nM

## C[C@H](CO)N1CCc2c(NC(=O)CC34CC5CC(C)(CC(C)(C5)C3)C4)cccc2C1=O [Compound 534]
[1]
  inhibition at 0.3 µM: > 76%
  IC50: 11.5 nM

## NC(=O)C(Cc1c[nH]cn1)n1ccc2c(NC(=O)CC34CC5CC(CC(C5)C3)C4)cccc2c1=O (stereo not shown) [Compound 514]
[1]
  inhibition at 0.3 µM: > 76%
  IC50: 1.36 nM

## O=C(CC1(O)CCCCCC1)Nc1cccc2c(=O)n(C(CO)CO)ccc12 [Compound 552]
[1]
  inhibition at 0.3 µM: 0 to 25%
  IC50: 760 nM

## CC1(C)CC(CC(=O)Nc2cccc3c(=O)n([C@@H](C(N)=O)c4ccccc4)ccc23)CC(C)(C)C1 [Compound 593, (R)-2-{1-Oxo-5-[2-(3,3,5,5-tetramethylcyclohexyl)-acetylamino]-1H-isoquinolin-2-yl}-2-phenyl-acetamide]
[1]
  inhibition at 0.3 µM: > 76%
  IC50: 4.09 nM

## CC(C)(O)Cn1ccc2c(NC(=O)[C@H]3CC[C@H](C)CC3)cccc2c1=O [Compound 568]
0.1 μM concentration, BzATP 250 uM, read-out: IL-1β % Inhib. @ 0.3 or 0.1 μM
  inhibition at 0.1 µM: 0 to 25%

## CC(C)[C@H](C(N)=O)n1ccc2c(NC(=O)CC34CC5CC(CC(C5)C3)C4)cccc2c1=O [Compound 536]
0.3 μM concentration, BzATP 250 uM
  IL-1β % Inhib. @ 0.3 or 0.1 μM: ++++ (compound exhibited 76% or greater inhibition at 0.3 μM concentration)
  IC50: 0.202 nM

## CC1(C)CC(C)(C)CC(O)(CC(=O)Nc2cccc3c(=O)n(C(CO)CO)ccc23)C1 [Compound 573]
[1]
  inhibition at 0.3 µM: > 76%
  IC50: 81.3 nM

## C[C@@H](C(N)=O)n1ccc2c(NC(=O)CC3(O)CCCCCC3)cccc2c1=O [Compound 557]
[1]
  inhibition at 0.3 µM: 26 to 50%
  IC50: 355 nM

## O=C(CC12CC3CC(CC(C3)C1)C2)Nc1cccc2c(=O)n(CC3CCCN3)ccc12 (stereo not shown) [Compound 504]
[1]
  inhibition at 0.3 µM: > 76%
  IC50: 1.56 nM

## CC1(C)CCCC(O)(CC(=O)Nc2cccc3c(=O)n(C(CO)CO)ccc23)C1 (stereo not shown) [Compound 553]
[1]
  inhibition at 0.3 µM: 51 to 75%
  IC50: 203 nM

## CNC(=O)[C@@H](C(C)C)n1ccc2c(NC(=O)CC34CC5CC(CC(C5)C3)C4)cccc2c1=O [Compound 592, (R)-2-[5-(2-Adamantan-1-yl-acetylamino)-1-oxo-1H-isoquinolin-2-yl]-3,N-dimethyl-butyramide]
[1]
  inhibition at 0.3 µM: > 76%
  IC50: 1.21 nM

## CC(C)[C@H](C(N)=O)n1ccc2c(NC(=O)CC34CC5CC(CC(C5)C3)C4)cccc2c1=O [Compound 528]
[1]
  inhibition at 0.3 µM: > 76%
  IC50: 0.181 nM

## CC(C)[C@H](C(N)=O)n1ccc2c(NC(=O)CC3CCCCCC3)cccc2c1=O [Compound 597, (R)-2-[5-(2-Cycloheptyl-acetylamino)-1-oxo-1H-isoquinolin-2-yl]-3-methyl-butyramide]
[1]
  inhibition at 0.3 µM: > 76%
  IC50: 2.38 nM

## C[C@@H](C(N)=O)n1ccc2c(NC(=O)CC34CC5CC(CC(O)(C5)C3)C4)cccc2c1=O [Compound 574]
[1]
  inhibition at 0.3 µM: 0 to 25%
  IC50: > 1000 nM

## CC(=O)NCCn1ccc2c(NC(=O)CC3CCCCCC3)cccc2c1=O [Compound 611, N-[2-(2-Acetylamino-ethyl)-1-oxo-1,2-dihydro-isoquinolin-5-yl]-2-cycloheptyl-acetamide]
[1]
  inhibition at 0.3 µM: 51 to 75%

## C[C@H](C(N)=O)n1ccc2c(NC(=O)CC3CC(C)(C)CC(C)(C)C3)cccc2c1=O [Compound 588]
[1]
  inhibition at 0.3 µM: > 76%
  IC50: 0.929 nM

## C[C@H](C(=O)Nc1cccc2c(=O)n([C@H](C)C(N)=O)ccc12)C1CCCCCC1 [Compound 609]
[1]
  inhibition at 0.3 µM: > 76%
  IC50: 6.16 nM

## O=C(CC12CC3CC(CC(C3)C1)C2)Nc1cccc2c(=O)n(C[C@H]3CCCN3)ccc12 [Compound 506]
[1]
  inhibition at 0.3 µM: > 76%
  IC50: 1 nM

## NC(=O)[C@H](CO)n1ccc2c(NC(=O)CC3CCCCCC3)cccc2c1=O [Compound 575, (S)-2-[5-(2-Cycloheptyl-acetylamino)-1-oxo-1H-isoquinolin-2-yl]-3-hydroxy-propionamide]
[1]
  inhibition at 0.3 µM: > 76%
  IC50: 40.8 nM

## O=C(CC12CC3CC(CC(C3)C1)C2)Nc1cccc2c(=O)n(C[C@@H]3CCCN3)ccc12 [Compound 505]
[1]
  inhibition at 0.3 µM: > 76%
  IC50: 0.65 nM

## C[C@@H](C(N)=O)n1ccc2c(NC(=O)CC3(O)CC(C)(C)CC(C)(C)C3)cccc2c1=O [Compound 556]
[1]
  inhibition at 0.3 µM: 51 to 75%
  IC50: 257 nM

## NC(=O)CCn1ccc2c(NC(=O)CC34CC5CC(CC(C5)C3)C4)cccc2c1=O [Compound 510]
[1]
  inhibition at 0.3 µM: > 76%
  IC50: 1.04 nM

## NC(=O)Cn1ccc2c(NC(=O)CC3(O)CCCCCC3)cccc2c1=O [Compound 562]
[1]
  inhibition at 0.3 µM: 26 to 50%
  IC50: 427 nM

## O=C(CC1CCCCCC1)Nc1cccc2c(=O)n(C[C@@H]3CCCN3)ccc12 [Compound 577]
[1]
  inhibition at 0.3 µM: > 76%

## CC1(C)CC(C)(C)CC(O)(CC(=O)Nc2cccc3c(=O)n(CCO)ccc23)C1 [Compound 546]
[1]
  inhibition at 0.3 µM: > 76%
  IC50: 135 nM

## O=C(CC1CCCCCC1)Nc1cccc2c(=O)n(C(CO)CO)ccc12 [Compound 560, 2-Cycloheptyl-N-[2-(2-hydroxy-1-hydroxymethyl-ethyl)-1-oxo-1,2-dihydro-isoquinolin-5-yl]-acetamide]
[1]
  inhibition at 0.3 µM: > 76%
  IC50: 75.6 nM

## CC(C)[C@H](C(=O)NC1CC1)n1ccc2c(NC(=O)CC34CC5CC(CC(C5)C3)C4)cccc2c1=O [Compound 594]
[1]
  inhibition at 0.3 µM: 26 to 50%
  IC50: 303 nM

## NC(=O)C(CO)n1ccc2c(NC(=O)CC3CCCCCC3)cccc2c1=O (stereo not shown) [Compound 551, 2-[5-(2-Cycloheptyl-acetylamino)-1-oxo-1H-isoquinolin-2-yl]-3-hydroxy-propionamide]
[1]
  inhibition at 0.3 µM: > 76%
  IC50: 32.7 nM

## O=C(CC1CCCCC1)Nc1cccc2c(=O)n(C(CO)CO)ccc12 [Compound 550]
[1]
  inhibition at 0.3 µM: 51 to 75%
  IC50: 266 nM

## CC(C)(C)OC(=O)N1CCC(C(=O)Nc2cccc3c(=O)n(CCO)ccc23)CC1 [Compound 537]
[1]
  inhibition at 0.3 µM: 0 to 25%
  IC50: > 1000 nM

## CC(C)(CO)n1ccc2c(NC(=O)CC34CC5CC(CC(C5)C3)C4)cccc2c1=O [Compound 613, 2-Adamantan-1-yl-N-[2-(2-hydroxy-1,1-dimethyl-ethyl)-1-oxo-1,2-dihydro-isoquinolin-5-yl]acetamide]
[1]
  inhibition at 0.3 µM: > 76%
  IC50: 3.78 nM

## O=C(CC1(O)CCCCCC1)Nc1cccc2c(=O)n(C[C@H]3CCCN3)ccc12 [Compound 578, 2-(1-Hydroxy-cycloheptyl)-N-(1-oxo-2-(R)-1-pyrrolidin-2-ylmethyl-1,2-dihydro-isoquinolin-5-yl)-acetamide]
[1]
  inhibition at 0.3 µM: > 76%
  IC50: 111 nM

## CC(C)C(CO)n1ccc2c(NC(=O)CC3CCCCCC3)cccc2c1=O (stereo not shown) [Compound 538]
[1]
  inhibition at 0.3 µM: > 76%
  IC50: 1.86 nM

## C[C@@H](CO)N1CCc2c(NC(=O)CC34CC5CC(C)(CC(C)(C5)C3)C4)cccc2C1=O [Compound 535]
[1]
  inhibition at 0.3 µM: > 76%
  IC50: 0.341 nM

## CC(C(N)=O)n1ccc2c(NC(=O)CC34CC5CC(C)(CC(C)(C5)C3)C4)cccc2c1=O (stereo not shown) [Compound 531]
[1]
  inhibition at 0.3 µM: > 76%
  IC50: 4.13 nM

## NC(=O)[C@@H](CC1CCCCC1)n1ccc2c(NC(=O)CC34CC5CC(CC(C5)C3)C4)cccc2c1=O [Compound 513]
[1]
  inhibition at 0.3 µM: > 76%
  IC50: 33.7 nM

## O=C(CC12CC3CC(CC(C3)C1)C2)Nc1cccc2c1CCN(CCO)C2=O [Compound 549, 2-Adamantan-1-yl-N-[2-(2-hydroxy-ethyl)-1-oxo-1,2,3,4-tetrahydro-isoquinolin-5-yl]-acetamide]
[1]
  inhibition at 0.3 µM: > 76%
  IC50: 1.37 nM

## CC12CC3CC(C)(C1)CC(CC(=O)Nc1cccc4c(=O)n(CC(N)=O)ccc14)(C3)C2 [Compound 523]
[1]
  inhibition at 0.3 µM: > 76%
  IC50: 1.5 nM

## CC(C)C[C@H](CO)n1ccc2c(NC(=O)CC3CCCCCC3)cccc2c1=O [Compound 590]
[1]
  inhibition at 0.3 µM: > 76%
  IC50: 8.3 nM
